The text below walks through data of patent EP1656933A1, “A medicinal composition comprising L-alanine for non-alcoholic fatty liver disease and/or non-alcoholic steatohepatitis and use therof” (Ajinomoto Co., Inc., priority 2004, dated 2006).

Details of data set [1]: species or system Male GK rats. The conditions noted are these: rat, in vivo. An excerpt: It has been supposed that the increase of the amount of fat intake in the last few decades is one of the causes of the recent increase of the number of patients with NASH. Therefore, the effect of L-alanine on the hepatic triglyceride contents in the high-fat diet (hereinafter HFD)-induced fatty liver rat model. Male GK rats (9 weeks of age, 6 rats per group) received HFD (containing 30% beef tallow) for 6 weeks.

For data set [2], the system named is HFD-induced fatty liver rat model. Nature of the data set: High-fat diet (HFD)-induced fatty liver rat model, hepatic triglyceride contents. The class given is in vivo, Male GK rats. The conditions noted are these: diet mixed with 4% L-alanine for 6 weeks; one rat of 6, in the level of SD group. The procedure: It has been supposed that the increase of the amount of fat intake in the last few decades is one of the causes of the recent increase of the number of patients with NASH. Therefore, the effect of L-alanine on the hepatic triglyceride contents in the high-fat diet (hereinafter HFD)-induced fatty liver rat model. Male GK rats (9 weeks of age, 6 rats per group) received HFD (containing 30% beef tallow) for 6 weeks. Triglyceride contents in the liver tissue was increased to 29.1 to 49.3 mg per gram of liver tissue, compared with those (14.1 to 24.2 mg) in the group fed with standard diet (containing 5% soy-been oil; hereinafter SD). Pioglitazone is a drug, which acts as an insulin-sensitizer for the patients with diabetes. Recent clinical pilot studies raise the possibility of clinical utility of pioglitazone for NASH. […] On the other hand, in the group of 6 rats received […] mixed with 4% L-alanine for 6 weeks, one rat is reduced in the liver triglyceride contents (19.6 mg) in the level of SD group. In addition, weight gain was reported as the main side effect in a pilot clinical study of piogritazone for NASH.

The test system of data set [3] is choline-deficient diet (hereinafter CDD) rat model. Nature of the data set: Choline-deficient diet (CDD) rat model showing NASH-like pathological change in the liver. The format is in vivo, Male Wistar rats. An excerpt:
Male Wistar rats (7 weeks of age, 5 rats per group) received CDD (Dyets Co.) for 4 weeks. […] On the other hand, in the group of 5 rats received CDD mixed with 4% L-alanine for 4 weeks, one rat is normalized in liver weight (10.6g).

Molecules are shown by their SMILES.

With `C[C@H](N)C(=O)O` [L-alanine], in data set [1], the “Body Weight (g) Post (at 6 weeks)” value worked out at 331.8 ± 20.5 g and the “Body Weight (g) Pre” value was 219.8 ± 13.0 g. In data set [2], the liver triglyceride contents was determined as 19.6 mg. The liver weight in data set [3] (CDD mixed with 4% L-alanine for 4 weeks, one rat of 5 (normalized), CDD alone 14.5 to 20.0 g) worked out at 10.6 g. Further, the “macrovesicular hepatic steatosis / histological fat accumulation in the liver” value in data set [3] (CDD mixed with drug for 4 weeks, histological examination, UDCA all of 5 rats, L-alanine the one rat of 5 with normalized liver weight) is “not recognized”.

Turning to `CCc1ccc(CCOc2ccc(CC3SC(=O)NC3=O)cc2)nc1` (stereo not drawn) [pioglitazone, reference compound], in data set [1], the “Body Weight (g) Pre” value came out at 222.1 ± 9.9 g.
